In BindingDB's records for patent US10053471 (Boehringer Ingelheim International, 2018):

Molecular target: 5'-AMP-activated protein kinase catalytic subunit alpha-1/subunit beta-1/subunit gamma-1 (Homo sapiens, UniProt P54619+Q13131+Q9Y478)
Test: in vitro AMPK activation assays
Conditions: pH 7; 25 °C
Description: The test compounds were dissolved in 100% DMSO at a concentration of 10 mM and in a first step diluted in DMSO to a concentration of 5 mM, followed by serial dilution steps in 100% DMSO. Dilution factor and number of dilution steps may vary. Typically 8 different concentrations by 1:5 dilutions were prepared, further dilutions of the substances were carried out with test buffer (20 mM Hepes (pH 7.0), 15 mM MgCl2, 0.025% BSA, 0.01% Brij 35) until a concentration was reached which was 5 times above the final test concentration. 2 μl aliquots of these dilutions were transferred into a 384-well Optiplate (Perkin Elmer, #6007290). Typically the start concentration for serial dilutions in the assay is 10 μM. Typically AMPK was diluted to 25 μg/ml in the test buffer and 4 μl of this dilution were used in the kinase test (final concentration of AMPK is 10 μg/ml in a total volume of 10 μl for the kinase reaction). Kinase concentrations may vary depending on activity of the preparation batches. […] The plates were read with an Envision Luminescence Reader (Perkin-Elmer).

Chain of 5'-AMP-activated protein kinase catalytic subunit alpha-1/subunit beta-1/subunit gamma-1 (Q9Y478 whole entry): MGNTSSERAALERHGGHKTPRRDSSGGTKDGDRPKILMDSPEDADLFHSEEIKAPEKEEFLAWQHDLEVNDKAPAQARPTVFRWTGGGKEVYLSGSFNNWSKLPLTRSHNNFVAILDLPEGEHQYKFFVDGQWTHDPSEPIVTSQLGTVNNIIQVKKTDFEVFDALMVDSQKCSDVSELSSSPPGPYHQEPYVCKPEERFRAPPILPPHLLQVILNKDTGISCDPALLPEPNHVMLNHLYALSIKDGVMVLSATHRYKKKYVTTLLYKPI
Chain of 5'-AMP-activated protein kinase catalytic subunit alpha-1/subunit beta-1/subunit gamma-1 (P54619 whole entry): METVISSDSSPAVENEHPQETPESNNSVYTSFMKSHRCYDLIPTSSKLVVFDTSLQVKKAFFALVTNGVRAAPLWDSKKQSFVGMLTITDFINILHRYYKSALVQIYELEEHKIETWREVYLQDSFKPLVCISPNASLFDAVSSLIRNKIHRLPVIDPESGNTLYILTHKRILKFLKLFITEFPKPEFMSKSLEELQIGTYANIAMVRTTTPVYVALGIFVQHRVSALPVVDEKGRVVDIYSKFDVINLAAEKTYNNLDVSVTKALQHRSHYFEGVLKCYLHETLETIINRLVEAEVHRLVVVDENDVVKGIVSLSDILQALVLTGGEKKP
Chain of 5'-AMP-activated protein kinase catalytic subunit alpha-1/subunit beta-1/subunit gamma-1 (Q13131 whole entry): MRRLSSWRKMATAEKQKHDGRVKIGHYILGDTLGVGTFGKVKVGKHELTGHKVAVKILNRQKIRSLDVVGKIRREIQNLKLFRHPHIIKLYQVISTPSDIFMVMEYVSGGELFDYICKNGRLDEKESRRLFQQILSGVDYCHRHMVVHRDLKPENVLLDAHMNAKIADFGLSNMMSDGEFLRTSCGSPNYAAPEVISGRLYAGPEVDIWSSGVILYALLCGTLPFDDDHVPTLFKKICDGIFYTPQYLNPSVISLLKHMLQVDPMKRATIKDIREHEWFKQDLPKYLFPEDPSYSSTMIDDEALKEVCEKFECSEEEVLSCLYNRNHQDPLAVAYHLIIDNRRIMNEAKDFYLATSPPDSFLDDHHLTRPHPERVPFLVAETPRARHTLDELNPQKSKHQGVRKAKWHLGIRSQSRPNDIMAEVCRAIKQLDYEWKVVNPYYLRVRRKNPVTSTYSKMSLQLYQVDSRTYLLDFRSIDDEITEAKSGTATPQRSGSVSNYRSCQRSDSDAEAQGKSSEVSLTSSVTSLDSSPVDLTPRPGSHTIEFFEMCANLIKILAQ

Structure (SMILES): CS(=N)(=O)c1ccc(-c2ccc(-c3nc4[nH]c(O[C@@H]5CO[C@H]6[C@@H]5OC[C@H]6O)nc4cc3Cl)cc2)c(F)c1 (stereo partly specified) [US10053471, 13]
- EC50: 71 nM
